Measured values as given in PMC10783087 (Microbiology Spectrum, 2023).
Converted amounts (≈) assume the structure as drawn. “And” between values parts separate entries of the source, which are not always exact repeats. Equal entries are not always repeated. Where two headings read alike, the source gives them in different places.

How the values were obtained:
[1] = tested on: M. avium ATC 700891 (MAC 101); assay: In vitro MIC against NTM, microbroth dilution; assay type: cell-based; conditions: 7 days; for MIC: Mycobacterium avium, 168 h
[2] = tested on: Mtb; assay: microbe, parasite or virus in culture; assay type: cell-based, Mycobacterium tuberculosis; conditions: for EC50: read-out: In vitro EC50; for EC90: read-out: In vitro EC90
[3] = tested on: Mtb CDC1551 FFluc reporter strain in primary bone marrow-derived macrophages; assay: microbe, parasite or virus in culture; assay type: cell-based; conditions: Mycobacterium tuberculosis, Macrophage; for EC90: read-out: ex vivo EC90
[4] = physchem; assay type: physicochemical; conditions: kinetic from dmso stock
Protocol: The kinetic solubility assay was conducted as previously described ([18]). Briefly, using methods described by Bevan and Lloyd ([56]), the assay was performed with 7-point (twofold) dilutions of the compounds, from 200 to 3.125 μM along with mebendazole, bexarotene, and aspirin as controls. The drug dilutions were added to PBS, pH 7.4, with a DMSO concentration of 1% (final), and incubated at 37°C for 2 h. The absorbance at 620 nm was measured for each drug dilution to estimate the solubility of the compound in triplicate/ dilution.

[5] = assay type: in vitro ADME, mouse
Protocol: The mouse microsomal stability assay was conducted as described by Obach ([57]), and the results are presented as the percentages remaining after 30 min. Values greater than 100% are likely due to changes in the solubility of the compounds over the course of the assay and represent high stability in microsomes.

[6] = assay type: in vivo, female C57Bl/6 mice; conditions: 200 mg/kg oral in corn oil
Protocol: Female C57Bl/6 mice were dosed with 200 mg/kg (based on the average body mass of 27 mice) of MSU-43085, MSU-43165, or MSU-43170 formulated in corn oil by oral gavage. At 1-, 2-, and 4-h post treatment, blood samples were taken from three mice from each treatment group by cardiac puncture and placed in BD Lithium HeparinN Vacutainer tubes. Plasma was separated from whole blood by centrifuge, and compounds were methanol extracted. Lungs were harvested from mice 4- h post treatment. Lung samples were homogenized using a closed tissue grinder system (Fisherbrand—02-542-09), and compounds were methanol extracted from lung homogenates. Methanol-extracted samples were quantified by UPLC/MS/MS.

[7] = tested on: Mtb Erdman; assay type: in vivo, Mycobacterium tuberculosis; conditions: for median lung bacterial burden: C57Bl/6 mice, oral gavage 2 weeks; for median lung bacterial burden / colonies in spleens (dissemination): INH 25 mg/kg, MSU compounds 200 mg/kg
[8] = tested on: primary bone marrow-derived macrophages (BMMΦ); conditions: for S.I. (CC50 / EC50): BMMΦ CC50 / ex vivo EC50, Table S1; for Si (CC50/EC50): macrophage CC50 / in vitro Mtb EC50
[9] = in vitro; conditions: mouse
[10] = tested on: Erdman; assay: microbe, parasite or virus in culture; assay type: cell-based; conditions: Mycobacterium tuberculosis
[11] = tested on: M. abscessus ATCC 19977; assay: In vitro MIC against NTM, microbroth dilution; assay type: cell-based; conditions: 7 days
[12] = tested on: H37Rv; assay: microbe, parasite or virus in culture; assay type: cell-based; conditions: Mycobacterium tuberculosis
[13] = tested on: H37Rv (ΔkatG); assay type: cell-based
[14] = in vitro; assay type: cell-based; conditions: human, 24 h treatment
Protocol: For additional cell lines including HepG2, HeLa, and THP-1, the following protocol was used. HepG2 (ATCC HB-8065) and HeLa (ATCC CCL-2) were cultured in cEMEM supplemented with 10% (vol/vol)/FBS and 1%(vol/vol) PenStrep. THP-1 cells were cultured in cRPMI-1640 medium (ATCC 30-2001) supplanted with 10% (vol/vol) FBS and 0.05 mM 2-mercaptoethanol (Sigma M3148). THP-1 cells were seeded in 96 well plates at 1 × 10^5 cells/mL with complete medium. HepG2 and HeLa cells were seeded in 96 well plates with cEMEM at 1 × 10^6 cells/mL. Cells were treated with compounds by dose response in a range of 128–0.48 µg/mL in triplicate or mitomycin C at a range of 128–0.0625 µM. Cells were treated for 24 h at 37°C with 5% CO2. Cells were then treated with either MTT or resazurin for 4 h. Absorbance was then measured at 570 nm for MTT plates. Percent cytotoxicity was calculated relative to positive mitomycin C and untreated controls. Percent cytotoxicity was used to calculate the IC50 using Graphpad prism software using non-linear regression analysis.

[15] = tested on: Mtb; conditions: cited from earlier work
[16] = tested on: M. abscessus ATCC 19977 in THP-1 cells; assay: Ex vivo (intra-macrophage) activity in infected THP-1 cells, resazurin; assay type: cell-based
Protocol: (§1) THP-1 cells were infected with either M. avium or M. abscessus at an MOI of 10 for 4 h prior to treatment. Following infection, cells were washed twice with PBS to remove non-phagocytosed bacteria. Fresh medium was then added, and cells were treated with concentrations ranging from 64 to 0.24 µg/mL and incubated for 24 h at 37°C with 5% CO2. Following 24 h of treatment, cells were treated with resazurin (0.04 mg/mL) and incubated for an additional 3–5 days. Absorbance was measured for each well at 570 and 600 nm. The percent growth reduction was calculated relative to treated and untreated controls.

[17] = tested on: M. avium ATC 700891 (MAC 101) in THP-1 cells; assay: as above; assay type: cell-based
Protocol: as §1

[18] = tested on: Mtb; conditions: earlier report; read-out: EC50 against Mtb in vitro; cited from earlier work
[19] = tested on: Mtb CDC1551 FFluc reporter strain in primary bone marrow-derived macrophages; set-up: method as in PMID 31405862; conditions: earlier report; read-out: EC50 against intracellular Mtb; cited from earlier work
[20] = tested on: MAB; conditions: at 20 µM; cited from earlier work
[21] = tested on: primary bone marrow-derived macrophages (BMMΦ); conditions: earlier report; cited from earlier work
[22] = Mycobacterium tuberculosis, 144 h
[23] = intracellular Mtb in BMMΦ, Table S1, read-out: ex vivo EC50
[24] = intracellular Mtb in BMMΦ, Table S1
[25] = read-out: intra-macrophage EC50
[26] = 37 °C, aqueous buffer, PBS pH 7.4, read-out: Kinetic solubility pH 7.4
[27] = aqueous buffer, PBS pH 2.0, read-out: Kinetic solubility pH 2.0
[28] = Table S5, % remaining after 30 minutes with mouse microsomes
[29] = mouse microsomes, % remaining after 30 min
[30] = Mycobacteroides abscessus, ATCC19977, 168 h
[31] = read-out: HeLa Cytotoxicity (IC50)
[32] = read-out: HepG2 Cytotoxicity (IC50)
[33] = read-out: THP-1 Cytotoxicity (IC50)
[34] = 37 °C, pH 2, aqueous buffer, Table S5, read-out: Kinetic solubility at pH 2.0
[35] = 37 °C, pH 7.4, aqueous buffer, Table S5, read-out: Kinetic solubility at pH 7.4

## CO[C@H]1/C=C/O[C@@]2(C)Oc3c(C)c(O)c4c(O)c(c(/C=N/N5CCN(C)CC5)c(O)c4c3C2=O)NC(=O)/C(C)=C\C=C\[C@H](C)[C@H](O)[C@@H](C)[C@@H](O)[C@@H](C)[C@H](OC(C)=O)[C@@H]1C [Rifampicin]
[1]
  MIC: 0.07 µM (≈ 0.0576 µg/mL)

## CC(C)N(C(=O)CNc1nc2cc(Cl)c(Cl)cc2[nH]1)C(C)C [MSU-43165]
[2]; [22]
  EC50: 380 nM
  EC90: 628 nM
[2]
  EC90: 630 nM
[3]; [23]
  EC50: 130 nM
[3]; [24]
  EC90: 150 nM
[3]; [25]
  EC50: 134 nM
[4]; [26]
  solubility kinetic: > 150 µM
[4]; [27]
  solubility kinetic: > 300 µM
[5]; [28]
  Microsome Stability: 106%
[5]; [29]
  Microsome Stability: 106%
[6]; 1 h
  Blood plasma concentration (1 h, fold EC50): 1.3 fold EC50 and 1.3× fold EC50
[7]; 200 mg/kg oral, 2 weeks, not significant (P > 0.99)
  absolute difference of the median lung burden vs vehicle control: 1.6 × 10^4 CFUs/mL
[7]
  median lung bacterial burden: 5.7 × 10^3 CFUs/mL
  colonies in spleens (dissemination): colonies could also be detected
[8]
  S.I. (CC50 / EC50): > 596.6
  Si (CC50/EC50): >210
[9]
  CC50: > 80000 nM

## CC(C)/N=c1\cc2n(-c3ccc(Cl)cc3)c3ccccc3nc-2cc1Nc1ccc(Cl)cc1 [Clofazimine]
[10]
  EC50: 300 nM

## Cc1cc2nc(SCC(=O)N(C(C)C)C(C)C)[nH]c2cc1C [MSU-42766]
[2]; [22]
  EC50: 1300 nM
  EC90: 8200 nM
[3]; [23]
  EC50: 410 nM
[3]; [24]
  EC90: 970 nM
[11]
  MIC: 12 µM (≈ 3.83 µg/mL)
[11]; [30]
  MIC: 12 µM (≈ 3.83 µg/mL)
[1]
  In vitro MIC, M. avium ATC 700891 (MAC 101): no detectable activity
  MIC: > 200 µM
[12]; read-out: MIC, H37Rv
  MIC: 1.5 µM
[12]; read-out: activity (MIC) against WT
  MIC: 0.5 µg/mL
[13]
  MIC, H37Rv (ΔkatG): 1.5 µM (≈ 0.479 µg/mL)
[10]
  EC50: 1300 nM
[14]; [31]
  IC50: > 128 µg/mL
[14]; [32]
  IC50: > 128 µg/mL
[14]; [33]
  IC50: 39.6 µg/mL (≈ 124 µM)
[8]
  S.I. (CC50 / EC50): > 195.6
  Si (CC50/EC50): >61
[9]
  CC50: > 80000 nM

## CC1(C)CCC(NC(=O)c2cc3c(Cl)cc(Cl)cc3[nH]2)CC1 [NITD-304]
[15]
  MIC: 0.02 µM (≈ 0.00679 µg/mL)

## CC[C@H]1OC(=O)[C@H](C)[C@@H](O[C@H]2C[C@@](C)(OC)[C@@H](O)[C@H](C)O2)[C@H](C)[C@@H](O[C@@H]2O[C@H](C)C[C@H](N(C)C)[C@H]2O)[C@](C)(OC)C[C@@H](C)C(=O)[C@H](C)[C@@H](O)[C@]1(C)O [Clarithromycin]
[11]; [30]
  MIC: 1.4 µM (≈ 1.05 µg/mL)
[1]
  MIC: 0.08 µM (≈ 0.0598 µg/mL)
[16]
  Ex vivo (>90% inhibition), M. abscessus ATCC 19977: 86 µM
[17]
  Ex vivo (>90% inhibition), M. avium ATC 700891 (MAC 101): 171 µM

## NNC(=O)c1ccncc1 [Isoniazid]
[12]; read-out: MIC, H37Rv
  MIC: 0.2 µM
[13]
  MIC, H37Rv (ΔkatG): >14.5 µM
[7]
  median lung bacterial burden: no colonies were isolated
  colonies in spleens (dissemination): no colonies were isolated

## CC(C)N(C(=O)COc1nc2cc(Cl)c(Cl)cc2[nH]1)C(C)C [MSU-43170]
[2]; [22]
  EC50: 116 nM
  EC90: 263 nM
[2]
  EC50: 120 nM
  EC90: 260 nM
[3]; [24]
  EC90: 140 nM
[3]; [25]
  EC50: 35 nM
[4]; [26]
  solubility kinetic: > 50 µM
[4]; [27]
  solubility kinetic: > 300 µM
[5]; [28]
  Microsome Stability: 95%
[5]; [29]
  Microsome Stability: 95%
[6]; 2 h time point (1 h unavailable)
  Blood plasma concentration (2 h, fold EC50): 4 fold EC50 and 4× ^ a fold EC50
[8]
  S.I. (CC50 / EC50): > 2285
  Si (CC50/EC50): >667
[9]
  CC50: > 80000 nM

## COc1nc2ccc(Br)cc2cc1[C@@H](c1ccccc1)[C@@](O)(CCN(C)C)c1cccc2ccccc12 [Bedaquiline]
[10]
  EC50: 220 nM

## CC(C)N(C(=O)CSc1nc2ccc(Cl)cc2[nH]1)C(C)C [HC2099]
[2]; [22]
  EC50: 5900 nM
  EC90: 13700 nM
[4]; [34]
  solubility kinetic: > 300 µM
[4]; [35]
  solubility kinetic: 178 µM (≈ 58 µg/mL)
[5]; [28]
  Microsome Stability: 71%
[8]
  Si (CC50/EC50): >13
[18]
  EC50: 1700 nM
[19]
  EC50: < 300 nM
[20]
  inhibition of MAB growth in vitro: 96.5%
[9]
  CC50: > 80000 nM
[21]
  cytotoxicity in macrophages: no detectable cytotoxicity

## CC1(C)CCC(NC(=O)c2cc3c(F)cc(F)cc3[nH]2)CC1 [NITD-349]
[15]
  MIC: 0.03 µM (≈ 0.00919 µg/mL)

## COc1c(N2C[C@@H]3CCCN[C@@H]3C2)c(F)cc2c(=O)c(C(=O)O)cn(C3CC3)c12 [Moxifloxacin]
[12]; read-out: MIC, H37Rv
  MIC: 0.15 µM
[13]
  MIC, H37Rv (ΔkatG): 0.15 µM (≈ 0.0602 µg/mL)

## Cc1ccc2nc(SCC(=O)N(C(C)C)C(C)C)[nH]c2c1 [HC2183]
[2]; [22]
  EC50: 7300 nM
  EC90: 16000 nM
[4]; [34]
  solubility kinetic: > 300 µM
[4]; [35]
  solubility kinetic: > 200 µM
[5]; [28]
  Microsome Stability: 25%
[8]
  Si (CC50/EC50): >11
[18]
  EC50: 3200 nM
[19]
  EC50: 3000 nM
[9]
  CC50: > 80000 nM
[21]
  cytotoxicity in macrophages: no detectable cytotoxicity

## CO[C@@]12[C@H](COC(N)=O)C3=C(C(=O)C(C)=C(N)C3=O)N1C[C@@H]1N[C@@H]12 [Mitomycin C, reference compound]
[14]; [31]
  IC50: 10.5 µg/mL (≈ 31.5 µM)
[14]; [32]
  IC50: 23 µg/mL (≈ 68.8 µM)
[14]; [33]
  IC50: 3.09 µg/mL (≈ 9.25 µM)

## NCC[C@H](O)C(=O)N[C@@H]1C[C@H](N)[C@@H](O[C@H]2O[C@H](CN)[C@@H](O)[C@H](O)[C@H]2O)[C@H](O)[C@H]1O[C@H]1O[C@H](CO)[C@@H](O)[C@H](N)[C@H]1O [Amikacin]
[11]
  MIC: 6.8 µM (≈ 3.98 µg/mL)
[11]; [30]
  MIC: 6.8 µM (≈ 3.98 µg/mL)
